These results are taken from article PMC7954447 (Science Advances, 2021).

The experiment concerns the target human α7 nicotinic ACh receptor (nAChR) (Homo sapiens, UniProt P36544). It is filed as cell-based.

Chain of human α7 nicotinic ACh receptor (nAChR) (P36544 23-502): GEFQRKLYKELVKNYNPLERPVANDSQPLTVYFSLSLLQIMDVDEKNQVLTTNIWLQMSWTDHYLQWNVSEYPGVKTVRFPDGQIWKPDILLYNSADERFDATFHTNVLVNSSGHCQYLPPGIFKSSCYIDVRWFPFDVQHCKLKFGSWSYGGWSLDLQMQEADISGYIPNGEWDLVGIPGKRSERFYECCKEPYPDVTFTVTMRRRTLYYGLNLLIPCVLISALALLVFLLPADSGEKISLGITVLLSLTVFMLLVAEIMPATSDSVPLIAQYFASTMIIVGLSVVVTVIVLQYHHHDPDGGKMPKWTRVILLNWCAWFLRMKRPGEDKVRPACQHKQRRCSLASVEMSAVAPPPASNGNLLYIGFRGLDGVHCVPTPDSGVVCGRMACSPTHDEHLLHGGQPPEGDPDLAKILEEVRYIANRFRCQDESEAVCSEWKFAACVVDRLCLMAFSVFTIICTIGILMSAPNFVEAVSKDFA

Conazolium A [compound 1] gave an IC50 of 24.4 µM. That is a double-digit micromolar value.

What is called IC50 is the concentration at which inhibition is half-maximal.
